Measurements from patent US7393812B2, “Methylidene mevalonates and their use as herbicides” (Dow AgroSciences LLC, priority 2004, dated 2008).

Tests used:
Assay in all cases: General herbicidal evaluation, postemergence
Format in all cases: in vivo
Details in all cases: 16 days after treatment
[1] = system: sunflower (Helianthus annus, HELAN)
Source text: (§1) Applications of methylidene mevalonate were made either to the foliage (postemergence) or soil (preemergence). Seeds of sunflower (Helianthus annus, HELAN), morningglory (Ipomoea hederacea, IPOHE) velvetleaf (Abutilon theophrasti, ABUTH), pigweed (Amaranthus spp., AMARE), barnyardgrass (Echinochloa crusgalli, ECHCG), giant foxtail (Setaria faberi, SETFA), wild oats (Avena fatua, AVEFA), and blackgrass (Alopecurus myosuroides, ALOMY) were planted in mineral soil (sandy clay loam, 51% sand, 26% silt, 23% clay, 2.8% O.M., pH 7.8) and Metro-mix (Bulk Sak, Inc., Malvern, Ark., USA) for preemergence and postemergence treatments, respectively. Pots receiving preemergence treatments were watered immediately following application. Prior to postemergence treatment, plants were grown in the greenhouse (16 h photoperiod, 27 C) and thinned to a density of 2 to 15 plants pot^−1, depending on species. At the time of postemergence applications, plants were 8-12 days old, 3 to 10 cm in height, and in the 1- to 3-true-leaf stage. Natural light in the greenhouse was supplemented with metal halide lights that provided an average photosynthetic photon flux of 500 μmol m^−2s^−1.
(§2) A sample of sodium methylidene mevalonate was dissolved in 4 mL of distilled water followed by 10 mL of formulation stock “B” (200 mL isopropanol, 20 mL crop oil concentrate, 0.4 g Triton X-155 [Sigma Chemical Co., St. Louis, Mo. 62718], and 78 mL water). This was followed by three 1:1 (v/v) serial dilutions using formulation stock “C” (100 mL isopropanol, 10 mL crop oil concentrate, 0.2 g Triton X-155, 390 mL water, 485 mL acetone and 15 mL DMSO).
(§3) Treatments were made at four different doses (4000, 2000, 1000, and 500 g ha^−1). For preemergence treatments, 1.75 mL of spray solution were applied to the soil surface in each pot using a glass Cornwall syringe fitted with a Teejet SS8001E flat-fan nozzle (Spraying Systems Co., Wheaton, Ill. 60189-7900). For postemergence applications, the foliage of the test plants was sprayed using a DeVilbiss atomizer (DeVilbiss Health Car, Inc., Somerset, Pa. 15501) driven by compressed air at a pressure of 22 kPa. Untreated controls were included.
(§4) Pots were placed in the greenhouse following compound application. Pots from postemergence and preemergence were sub-irrigated and top-watered, respectively, as needed for the duration of the test. […]

[2] = system: giant foxtail (Setaria faberi, SETFA)
Source text: as §1, §2, §3, §4

[3] = system: wild oats (Avena fatua, AVEFA)
Source text: as §1, §2, §3, §4

[4] = system: morningglory (Ipomoea hederacea, IPOHE)
Source text: as §1, §2, §3, §4

[5] = system: barnyardgrass (Echinochloa crusgalli, ECHCG)
Source text: as §1, §2, §3, §4

[6] = system: blackgrass (Alopecurus myosuroides, ALOMY)
Source text: as §1, §2, §3, §4

[7] = system: velvetleaf (Abutilon theophrasti, ABUTH)
Source text: as §1, §2, §3, §4

[8] = system: pigweed (Amaranthus spp., AMARE)
Source text: as §1, §2, §3, §4

C=C(CO)C(C)(O)CC(=O)O (centres unmarked) [methylidene mevalonate, 3-hydroxy-4-(hydroxymethyl)-3-methylpent-4-enoic acid]
Visual Injury (%) ([1]; 0.5 kg ha^−1, HELAN): 30% | Visual Injury (%) ([1]; 1.0 kg ha^−1, HELAN): 40% | Visual Injury (%) ([1]; 2.0 kg ha^−1, HELAN): 60% | Visual Injury (%) ([1]; 4.0 kg ha^−1, HELAN): 70% | Visual Injury (%) ([2]; 0.5 kg ha^−1, SETFA): 40% | Visual Injury (%) ([2]; 1.0 kg ha^−1, SETFA): 50% | Visual Injury (%) ([2]; 2.0 kg ha^−1, SETFA): 50% | Visual Injury (%) ([2]; 4.0 kg ha^−1, SETFA): 70% | Visual Injury (%) ([3]; 0.5 kg ha^−1, AVEFA): 40% | Visual Injury (%) ([3]; 1.0 kg ha^−1, AVEFA): 60% | Visual Injury (%) ([3]; 2.0 kg ha^−1, AVEFA): 60% | Visual Injury (%) ([3]; 4.0 kg ha^−1, AVEFA): 85% | Visual Injury (%) ([4]; 0.5 kg ha^−1, IPOHE): 60% | Visual Injury (%) ([4]; 1.0 kg ha^−1, IPOHE): 60% | Visual Injury (%) ([4]; 2.0 kg ha^−1, IPOHE): 65% | Visual Injury (%) ([4]; 4.0 kg ha^−1, IPOHE): 75% | Visual Injury (%) ([5]; 0.5 kg ha^−1, ECHCG): 60% | Visual Injury (%) ([5]; 1.0 kg ha^−1, ECHCG): 70% | Visual Injury (%) ([5]; 2.0 kg ha^−1, ECHCG): 70% | Visual Injury (%) ([5]; 4.0 kg ha^−1, ECHCG): 90% | Visual Injury (%) ([6]; 0.5 kg ha^−1, ALOMY): 30% | Visual Injury (%) ([6]; 1.0 kg ha^−1, ALOMY): 30% | Visual Injury (%) ([6]; 2.0 kg ha^−1, ALOMY): 60% | Visual Injury (%) ([6]; 4.0 kg ha^−1, ALOMY): 60% | Visual Injury (%) ([7]; 0.5 kg ha^−1, ABUTH): 40% | Visual Injury (%) ([7]; 1.0 kg ha^−1, ABUTH): 60% | Visual Injury (%) ([7]; 2.0 kg ha^−1, ABUTH): 60% | Visual Injury (%) ([7]; 4.0 kg ha^−1, ABUTH): 65% | Visual Injury (%) ([8]; 0.5 kg ha^−1, AMARE): 30% | Visual Injury (%) ([8]; 1.0 kg ha^−1, AMARE): 50% | Visual Injury (%) ([8]; 2.0 kg ha^−1, AMARE): 40% | Visual Injury (%) ([8]; 4.0 kg ha^−1, AMARE): 50%
